Data: ChEMBL document CHEMBL1142828, “Trypanocidal activity of (-)-cubebin derivatives against free amastigote forms of Trypanosoma cruzi” (Bioorg Med Chem Lett, 2005)

Tests used:
[1] = tested on: Trypanosoma cruzi; experiment: Trypanocidal activity against amastigote forms of Y strain of Trypanosoma cruzi; assay type: functional, organism-based
[2] = tested on: Trypanosoma cruzi; experiment: Percentage delyse against amastigote forms of Y strain of Trypanosoma cruzi at 2 uM; assay type: functional
[3] = tested on: Trypanosoma cruzi; experiment: Percentage delyse against amastigote forms of Y strain of Trypanosoma cruzi at 8 uM; assay type: functional
[4] = tested on: Trypanosoma cruzi; experiment: Percentage delyse against amastigote forms of Y strain of Trypanosoma cruzi at 0.5 uM; assay type: functional
[5] = tested on: Trypanosoma cruzi; experiment: Percentage delyse against amastigote forms of Y strain of Trypanosoma cruzi at 32 uM; assay type: functional

O=C1OC[C@H](Cc2ccc3c(c2)OCO3)[C@@H]1Cc1ccc2c(c1)OCO2
IC50 [1]: 0.7 µM | Delyse [2]: 57% | Delyse [3]: 57.6% | Delyse [4]: 47.6% | Delyse [5]: 63.6%

CC(=O)OC1OC[C@H](Cc2ccc3c(c2)OCO3)[C@@H]1Cc1ccc2c(c1)OCO2 (stereo not given in full)
IC50 [1]: ~15000 µM | Delyse [2]: 26% | Delyse [3]: 29% | Delyse [4]: 14.5% | Delyse [5]: 26.4%

CN(C)CCOC1OC[C@H](Cc2ccc3c(c2)OCO3)[C@@H]1Cc1ccc2c(c1)OCO2 (stereo not given in full)
IC50 [1]: 4.7 µM | Delyse [2]: 55.4% | Delyse [3]: 50.8% | Delyse [4]: 33.6% | Delyse [5]: 57.8%

c1ccc(COC2OC[C@H](Cc3ccc4c(c3)OCO4)[C@@H]2Cc2ccc3c(c2)OCO3)cc1 (stereo not given in full)
IC50 [1]: 5.7 µM | Delyse [2]: 38% | Delyse [3]: 46.8% | Delyse [4]: 37% | Delyse [5]: 68.8%

O=C1OC[C@H](Cc2cc3c(cc2[N+](=O)[O-])OCO3)[C@@H]1Cc1cc2c(cc1[N+](=O)[O-])OCO2
IC50 [1]: 95.3 µM | Delyse [2]: 48.7% | Delyse [3]: 38.9% | Delyse [4]: 34.6% | Delyse [5]: 48.5%

O=C(Cn1ccnc1[N+](=O)[O-])NCc1ccccc1 [BENZNIDAZOLE]
IC50 [1]: 0.8 µM | Delyse [2]: 67% | Delyse [3]: 69% | Delyse [4]: 38.4% | Delyse [5]: 68%
